“Also recorded” adds a separate entry of the source.
What was measured:
[1] = test system: spontaneously occurring glioblastoma; assay: Canine study: tumor resection plus canine CD200AR-L and autologous tumor lysate vaccination; assay type: in vivo, dog; settings: canine glioma model
Experimental: Canine study. Pet dogs with a solitary intra-axial mass found by magnetic resonance imaging (MRI) were recruited into a pilot study to assess the effect of a canine-specific peptide. The MRIs were performed to find the causes of generalized seizure activity or behavioral changes, and anti-epileptic drug therapy and corticosteroids were prescribed to control seizures and minimize cerebral edema, respectively. Additional inclusion criteria were 1) tumor suitable for surgical resection, 2) informed consent provided by the dog's owner, 3) normal mentation status at the time of surgery, and 4) no previous definitive therapy for the suspected glioma.
All dogs underwent surgical resection of the intra-axial mass for maximal tumor debulking. The removed tumors were immediately processed to generate autologous tumor lysates. The lysates were prepared by culturing single-cell suspensions from minced fresh tumor samples at 37° C. in 5% […]. […] An immediate postoperative MRI was performed to assess the extent of resection and to quantify any residual tumor volume. Tumor volume was measured using the planimetry method, which outlines the tumor perimeter on each MR slice; Osirix software was used to calculate the area, and then the areas were summed and multiplied by slice thickness plus gap width. After recovery from anesthesia, all dogs were monitored in the intensive care unit for at least 24 hours. […]

human CD14 cells = assay: CD200R1 and PD-1 on human CD14 cells pulsed with human CD200AR-L, flow cytometry; assay type: cell-based; settings: mean fluorescent intensity
Experimental: FIGS. 7A-7G. CD200AR-L pulses down-regulate inhibitory CD200R1. Murine CD11b cells were pulsed with mCD200AR-L, RNA was extracted and analyzed for CD200R1 or PD-1 expression (FIGS. 7A&B). To further these studies, CD11b cells were stimulated with OVA+/−CD200AR-L, cells were washed and purified T cells were added. Following 24 hr incubation, T-cells were isolated and analyzed for CD200R1 or PD-1 expression (FIGS. 7C&D). To see if these experiments translated to humans, CD14 cells were pulsed with our human CD200AR-L. Following 24 hr incubation, cells were stained with anti-CD200R1 analyzed by flow cytometry (FIG. 7E), mean fluorescent intensity was analyzed for CD200R1 (FIG. 7F) and PD-1 (FIG. 7G) expression. […] Error bars represent standard deviation (n=3/group, *P<0.05, **P<0.005, ***P<0.0005, ****P<0.00005 by t-test.
FIGS. 13A-13F. Figure. […] Murine CD11b cells were pulsed CD200AR-L and analyzed for transcription levels of (FIG. 13A) CD200R1 and (FIG. 13B) PD-1; Human CD14 cells were pulsed with human CD200AR-L, following 48 hr incubation, cells were analyzed by flow cytometry for (FIG. 13C) CD200R1 and (FIG. 13D) PD-1 expression; murine CD11b cells from wildtype mice were pulsed with OVA+/− the CD200AR-L. Cells were washed, purified CD3 cells were added to CD11b cells for 24 hrs. CD3 cells were purified and analyzed for transcription levels of (FIG. 13E) CD200R1 and (FIG. 13F) PD-1. […]

CD14+ cells [2] = assay: Dendritic cell maturation: phenotyping for CD80, CD86, HLA-DR; assay type: cell-based, human; settings: peptide alone compared with GM-CSF+IL4, p<0.0001
Experimental: FIGS. 4A-4D. Targeting CD200 activation receptors enhances dendritic cell maturation. (FIGS. 4A, 4B) CD14 purified cells were pulsed with (FIG. 4A) GM-CSF+IL4 or equal molar ratios of peptides P1A8, P2A0, or P4A10 or (FIG. 4B) GM-CSF+IL4 plus equal molar ratios of peptides P1A8, P2A0, or P4A10 and incubated for 48 h. Cells were harvested and phenotyped for CD80, CD86, and HLA-DR. (FIG. 4C) Immature dendritic cells from donors with or without CMV were pulsed with the CMV antigen pp65+/−equal molar ratios of peptides P1A8, P2A0, or P4A10. Cells were washed, and autologous T-cells were added back and incubated for a further 48 h. Supernatants were analyzed for IFNγ production. (FIG. 4D) Immature dendritic cells were pulsed with the CMV antigen pp65+/−P4A10. After the cells were washed, autologous T-cells were added back and incubated for a further 48 h. Supernatants were analyzed for IFNγ, IL-6, TNFα and RANTES content. Error bars represent standard deviation (n=3 healthy donors/group, *P<0.05, **P<0.005, ***P<0.0005 by t-test). The data represent three separate healthy donors. Black bars represent CMV-negative donors.
Targeting CD200 activation receptors enhances dendritic cell maturation. TNF-regulated cytokines (Table 1) have been implicated in dendritic cell maturation. […] To substantiate this, CD14^+ cells were isolated from healthy human donors and pulsed with GM-CSF+IL4, P1A8, P2A0, or P4A10 27. Cells pulsed with P1A8, P2A0, and P4A10 expressed higher levels of the co-stimulatory molecules CD80, CD86, and HLA-DR than cells treated with GM-CSF+IL4 (p<0.0001; FIG. 4a). Moreover, we observed synergistic upregulation of CD80/86 and HLA-DR when CD14^+ cells were incubated with GM-CSF+IL4 and each of the peptides (p<0.0001) (FIG. 4b).

Human CD14+ cells = assay: Cytokine measurements in CD14+ cells pulsed with CD200AR-L peptide; assay type: cell-based; settings: selection among 61 alanine-substituted peptides
Experimental: Cytokine measurements. Human CD14^+ cells (5×10^5) were isolated from peripheral blood mononuclear cells (PBMCs) using anti-CD14 beads (BD Biosciences, San Jose, CA), typically yielding ≥70% recovery and ≥90% purity. Cells were pulsed with 2 μM CD200AR-L peptide and incubated for 48 h, after which the supernatants were analyzed by bead array for cytokine production (BD Biosciences, San Jose, CA).

CD14+ cells [3] = assay: RNAseq / NanoString gene expression analysis of pulsed CD14+ cells; assay type: cell-based, human
Source text: Nanostring gene expression analysis: Total RNA from CD14^+ cells was sent to New Zealand Genomics Limited (Dunedin, New Zealand) to measure the expression of genes that are differentially expressed during inflammation (nCounter GX, NanoString Technologies, Seattle, WA, USA). Briefly, total RNA was extracted from CD14^+ cells (MagJET RNA kit, Thermo Fisher Scientific, Waltham, MA) using the protocol adapted for tissue (KingFisher Duo machine, Thermo Fisher Scientific, Waltham, MA). RNA samples were then quantified (Qubit® 2.0 fluorometer, Thermo Fisher Scientific) and subjected to RNA integrity analysis (2100 Bioanalyzer, Agilent Technologies, Santa Clara, CA). Probes for the genes encoding CD44 (NM_001001392.1); NANOG (NM_024865.2); OCT4 (NM_002701.4); STAT3 (NM_139276.2); and the housekeeping genes glucuronidase beta (NM_000181.1), clathrin heavy chain (NM 4859.2), and hypoxanthine phosphoribosyltransferase 1 (NM_000194.1) were designed and manufactured by NanoString Technologies.
Expression data obtained with NanoString GX were analyzed by using nSolver Analysis Software 3.0 (nanostring.com/products/nSolver) with default settings, and normalized to housekeeping genes. nSolver was used to perform cluster analysis and to generate heat maps by using Java Treeview Version 1.1.6r4. Pathway analysis was performed by using the PathCards Pathway Unification Database (pathcards.genecards.org). Student's t-tests were used to determine significant differences (p<0.05).

murine glioma model = assay: Murine glioma model survival; assay type: in vivo
Murine CD11b cells = assay: PMA-activated murine CD11b cells treated with PD-L1 +/- murine CD200AR-L, cytokines; assay type: cell-based; settings: PD-L1 with or without murine CD200AR-L, 48 hr
Source text: FIGS. 8A-8C. CD200AR-L pulses overpowers the suppressive PD-L1.

Splenocytes = Splenocytes pulsed with CD200 or PD-L1 +/- mCD200AR-L, flow cytometry for CTLA4 and PD-L1; assay type: cell-based
Experimental: FIGS. 14A-14C. […] Splenocytes were pulsed with CD200, PD-L1+/−mCD200AR-L. Cells were analyzed by flow cytometry for the (FIG. 14A) CD4^+CTLA4^+, (FIG. 14B) CD8^+CTLA4^+or (FIG. 14C) CD11b^+PD-L1^+ populations. Error bars are representative of n=2 *P<0.005, **P<0.0001.
We propose that soluble CD200 and PD-L1 inhibit T cell activation through multiple checkpoints (FIG. 10). Therefore, the effect of multiple suppressive molecules (CD200 and PD-L1) on T cell inhibition was investigated. […] In addition, following PD-L1 treatment, an upregulation of PD-L1 on CD11b and an upregulation of CTLA4 was observed on T cells. Being CTLA4 and PD-L1 propagate separate inhibitory signals, it was hypothesized that PD-L1 inhibits T cell activation through 1) direct CD200 and PD-L1 on T cells and 2) direct PD-L1 (on APCs)/PD-I (on […]) producing cytokines upregulating CTLA4, which would explain the enhanced responses seen in combination α-PD-1 and α-CTLA4 treatments. However, neither of them inhibit CD200 effect on T cells.
We next looked at the effects of CD200AR-L on T cell inhibition. […] Being CTLA4 and PD-L1 propagate separate inhibitory signals, we hypothesize that PD-L1 inhibits T cell activation through two separate mechanisms, 1) through direct PD-L1 (on APCs)/PD-I (on T cells) interactions and through cytokine production following PD-L1 binding to the PD-1 on CD11b cell, which would explain the enhanced responses seen in combination α-PD-1 and α-CTLA4 treatments.

Murine splenocytes = assay: Splenocytes activated with PMA +/- PD-L1 or PD-L1+CD200AR-L, cytokines; assay type: cell-based; settings: 48 hr
Experimental: FIGS. 11A-11C. […] Murine splenocytes were activated with PMA, +/−PD-L1 or PD-L1+mCD200AR-L. Following 48 hr incubation, supernatants were analyzed for (FIG. 11A) TNFα (FIG. 11B) IL-4 or (FIG. 11C) IL-5. Error bars are representative of n=3; *P<0.005.
The CD200 and PD-1 pathways crosstalk, allowing CD200AR-L to override the suppressive PD-L1. […] To evaluate the effect of CD200AR-L on PD-1/PD-L1, splenocytes were activated with PMA+/−PD-L1 or PD-L1+CD200AR-L, and supernatants were analyzed for TNFα, IL-4 and IL-5 production (FIG. 11A-11C). As observed with the CD200 protein (FIG. 11B), PD-L1 induced an immune suppressed environment as measured by cytokine production; however, PD-L1 reduced the production of TNFα, IL-4 and IL-5 induced by PMA, which was restored by the addition of CD200AR-L. These experiments led to the hypothesis that the CD200 and PD-1 pathways are connected.

[4] = splenocytes pulsed with CD200 or PD-L1

CLFNTFGSGAISGTA (Ac-CLFNTFGSGAISGTA-NH2; listed as Canis lupus) [canine P4A10]
survival benefit [1]: significant survival benefit

IVTWQKKAAVSPENM (Ac-IVTWQKKAAVSPENM-NH2; listed as Homo sapiens) [P1A8]
PD-1 expression on human CD14 cells (human CD14 cells): down regulated | levels of co-stimulatory molecules CD80, CD86, and HLA-DR (CD14+ cells [2]): higher levels | secretion of inflammatory cytokines from CD14+ cells (Human CD14+ cells): maximally stimulated | mRNA expression of TNF-regulated cytokines (CD14+ cells [3]; NanoString platform, FIG. 3b): most potently and consistently induced | mRNA expression of cytokines released in response to TNF signaling (CD14+ cells [3]; RNAseq, CD14+ cells): notable increase

VTWQKKKAVSPANM (Ac-VTWQKKKAVSPANM-NH2; listed as Mus musculus) [murine P1A12]
survival benefit (murine glioma model): significant survival benefit

PD-L1: programmed cell death ligand 1, suppressive protein used to pulse cells
activation of CD11b cells (TNFalpha, IL4, IL5 in supernatant) (Murine CD11b cells): suppressed the activation | CTLA4 on CD4 cells (Splenocytes; [4]): upregulated | CTLA4 on CD8 cells (Splenocytes; [4]): upregulated | PD-L1 on CD11b cells (Splenocytes; [4]): upregulation; also recorded: upregulated | CTLA4 on T cells (Splenocytes; total splenocytes, following PD-L1 treatment): upregulation | production of TNFα, IL-4 and IL-5 (Murine splenocytes): reduced
